Experimental data: patent publication US20240269139A1, “COMPOUNDS FOR TARGETED PROTEIN DEGRADATION OF KINASES” (DANA-FARBER CANCER INSTITUTE, INC., priority 2020, published 2024)
Like-named read-outs stand apart in the source and are kept apart here.

Assays:
Assay type in all cases: cell-based
[1] = target: protein kinases (human kinome) (Homo sapiens, UniProt P23443); conditions: for logFC: RPS6KB1 (P23443-1)
[2] = target: T1, protein kinases (human kinome) (Homo sapiens, UniProt Q6PHR2); conditions: for logFC ULK3: ULK3 (Q6PHR2-1)
T1 sequence (Q6PHR2 1-472): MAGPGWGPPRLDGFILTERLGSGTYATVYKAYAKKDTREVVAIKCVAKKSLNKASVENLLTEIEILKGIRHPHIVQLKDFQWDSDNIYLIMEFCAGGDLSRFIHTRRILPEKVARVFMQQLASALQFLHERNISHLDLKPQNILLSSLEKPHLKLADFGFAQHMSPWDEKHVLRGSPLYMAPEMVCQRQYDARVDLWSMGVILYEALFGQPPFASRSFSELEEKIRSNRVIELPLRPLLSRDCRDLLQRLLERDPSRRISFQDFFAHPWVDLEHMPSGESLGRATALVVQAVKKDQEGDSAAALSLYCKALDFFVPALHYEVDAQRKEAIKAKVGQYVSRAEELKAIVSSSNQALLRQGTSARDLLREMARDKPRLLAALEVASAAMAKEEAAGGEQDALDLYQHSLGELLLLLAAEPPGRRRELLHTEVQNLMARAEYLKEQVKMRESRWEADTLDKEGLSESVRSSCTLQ

[3] = target: protein kinases (human kinome) (Homo sapiens, UniProt Q9Y4K4); conditions: MAP4K5 (Q9Y4K4)
Sequence of protein kinases (human kinome) (Homo sapiens, UniProt Q9Y4K4) (Q9Y4K4 whole entry): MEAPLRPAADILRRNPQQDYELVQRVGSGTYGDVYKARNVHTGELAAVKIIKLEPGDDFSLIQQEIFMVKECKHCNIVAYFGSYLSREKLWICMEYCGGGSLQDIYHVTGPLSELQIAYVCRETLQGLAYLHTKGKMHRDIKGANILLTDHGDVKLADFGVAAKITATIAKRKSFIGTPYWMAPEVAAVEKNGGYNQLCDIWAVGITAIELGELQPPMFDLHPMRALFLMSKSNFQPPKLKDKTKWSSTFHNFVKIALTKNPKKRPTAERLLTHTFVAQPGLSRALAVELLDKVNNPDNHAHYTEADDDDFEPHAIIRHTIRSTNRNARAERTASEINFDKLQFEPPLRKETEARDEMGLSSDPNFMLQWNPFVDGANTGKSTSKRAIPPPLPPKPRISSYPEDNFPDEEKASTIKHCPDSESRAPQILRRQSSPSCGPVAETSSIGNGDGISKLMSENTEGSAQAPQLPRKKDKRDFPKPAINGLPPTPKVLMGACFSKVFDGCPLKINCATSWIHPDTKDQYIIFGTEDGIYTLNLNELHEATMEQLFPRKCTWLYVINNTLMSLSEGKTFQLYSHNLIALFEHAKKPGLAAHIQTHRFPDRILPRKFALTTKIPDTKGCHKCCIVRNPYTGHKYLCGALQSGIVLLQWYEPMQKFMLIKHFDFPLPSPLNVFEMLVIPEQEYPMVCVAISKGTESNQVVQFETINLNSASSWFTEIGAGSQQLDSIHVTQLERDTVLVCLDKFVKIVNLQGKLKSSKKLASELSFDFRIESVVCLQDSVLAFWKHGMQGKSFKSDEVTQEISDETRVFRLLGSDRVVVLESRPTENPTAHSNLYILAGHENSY

[4] = target: protein kinases (human kinome) (Homo sapiens, UniProt Q05397)
Sequence of protein kinases (human kinome) (Homo sapiens, UniProt Q05397) (Q05397 whole entry): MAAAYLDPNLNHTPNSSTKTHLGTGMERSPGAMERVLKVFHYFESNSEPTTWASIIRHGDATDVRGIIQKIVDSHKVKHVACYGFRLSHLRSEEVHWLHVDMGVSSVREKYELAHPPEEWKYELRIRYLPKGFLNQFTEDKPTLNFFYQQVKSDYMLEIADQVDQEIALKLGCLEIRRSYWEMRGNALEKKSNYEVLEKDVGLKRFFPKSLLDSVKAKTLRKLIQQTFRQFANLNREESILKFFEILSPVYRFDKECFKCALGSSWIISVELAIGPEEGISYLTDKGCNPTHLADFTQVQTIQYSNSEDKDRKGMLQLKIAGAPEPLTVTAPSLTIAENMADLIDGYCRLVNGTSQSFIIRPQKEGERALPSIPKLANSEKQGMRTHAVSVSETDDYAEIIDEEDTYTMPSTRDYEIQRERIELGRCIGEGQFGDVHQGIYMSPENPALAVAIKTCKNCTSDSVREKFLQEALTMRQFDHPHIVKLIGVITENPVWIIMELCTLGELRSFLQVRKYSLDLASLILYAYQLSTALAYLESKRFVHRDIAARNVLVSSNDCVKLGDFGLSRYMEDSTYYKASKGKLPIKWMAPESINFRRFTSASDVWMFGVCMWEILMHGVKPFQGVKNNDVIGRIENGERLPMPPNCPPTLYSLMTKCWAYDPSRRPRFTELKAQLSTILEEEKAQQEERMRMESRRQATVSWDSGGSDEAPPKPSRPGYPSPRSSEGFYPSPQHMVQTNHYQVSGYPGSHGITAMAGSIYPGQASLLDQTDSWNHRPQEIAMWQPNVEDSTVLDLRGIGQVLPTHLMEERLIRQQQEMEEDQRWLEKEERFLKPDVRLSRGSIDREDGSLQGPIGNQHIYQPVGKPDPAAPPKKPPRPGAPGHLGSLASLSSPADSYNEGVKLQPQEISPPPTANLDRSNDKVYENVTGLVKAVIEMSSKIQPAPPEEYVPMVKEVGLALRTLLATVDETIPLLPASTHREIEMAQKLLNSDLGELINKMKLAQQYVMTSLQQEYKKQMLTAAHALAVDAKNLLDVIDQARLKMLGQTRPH

[5] = target: protein kinases (human kinome) (Homo sapiens, UniProt P49840); conditions: GSK3A P49840
Sequence of protein kinases (human kinome) (Homo sapiens, UniProt P49840) (P49840 whole entry): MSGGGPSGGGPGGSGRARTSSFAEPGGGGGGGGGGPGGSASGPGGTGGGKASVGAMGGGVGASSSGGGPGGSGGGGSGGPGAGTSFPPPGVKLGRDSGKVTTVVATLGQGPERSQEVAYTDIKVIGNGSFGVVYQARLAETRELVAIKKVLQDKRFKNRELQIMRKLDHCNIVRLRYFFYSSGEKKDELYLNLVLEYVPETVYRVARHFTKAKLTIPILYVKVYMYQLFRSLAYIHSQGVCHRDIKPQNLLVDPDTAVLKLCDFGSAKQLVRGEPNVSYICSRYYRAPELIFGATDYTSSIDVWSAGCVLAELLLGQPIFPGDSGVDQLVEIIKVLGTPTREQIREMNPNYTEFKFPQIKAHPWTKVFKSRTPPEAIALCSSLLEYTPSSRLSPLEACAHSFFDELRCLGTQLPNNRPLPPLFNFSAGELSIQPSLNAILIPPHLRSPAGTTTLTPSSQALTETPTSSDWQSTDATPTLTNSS

Sequence of protein kinases (human kinome) (Homo sapiens, UniProt P23443) (P23443 whole entry): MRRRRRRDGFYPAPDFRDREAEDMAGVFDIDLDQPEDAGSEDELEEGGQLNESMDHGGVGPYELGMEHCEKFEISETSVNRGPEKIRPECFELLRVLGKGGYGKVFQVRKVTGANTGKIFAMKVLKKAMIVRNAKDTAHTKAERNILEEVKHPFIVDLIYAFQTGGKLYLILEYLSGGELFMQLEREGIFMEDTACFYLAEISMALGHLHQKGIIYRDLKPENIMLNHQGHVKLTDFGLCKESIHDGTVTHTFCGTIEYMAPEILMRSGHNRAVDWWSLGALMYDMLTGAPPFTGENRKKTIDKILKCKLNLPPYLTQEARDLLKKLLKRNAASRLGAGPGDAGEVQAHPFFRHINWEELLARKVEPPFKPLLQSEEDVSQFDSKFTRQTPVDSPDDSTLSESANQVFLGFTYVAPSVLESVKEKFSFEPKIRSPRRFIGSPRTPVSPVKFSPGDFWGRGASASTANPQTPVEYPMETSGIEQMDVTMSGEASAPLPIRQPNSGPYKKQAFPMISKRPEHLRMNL

## Cc1ncsc1-c1ccc([C@H](C)NC(=O)[C@@H]2C[C@@H](O)CN2C(=O)[C@@H](NC(=O)CCCCCN2CCc3cc(Nc4ncc(C5CC5)c(NCCCNC(=O)C5CCC5)n4)ccc3C2)C(C)(C)C)cc1 [BSJ.05.026]
[1]; Experiment wp195
  logFC of RPS6KB1 (P23443-1): −0.5629
[1]; experiment wp195
  logFC: −0.5629

## CS(=O)(=O)Nc1cccc(-c2csc3cnc(Nc4ccc(N5CCN(CCCCCOc6cccc7c6C(=O)N(C6CCC(=O)NC6=O)C7=O)CC5)cc4)nc23)c1 (centres unmarked) [DB0614, N-(3-(2-((4-(4-(5-((2-(2,6-Dioxopiperidin-3-yl)-1,3-dioxoisoindolin-4-yl)oxy)pentyl)piperazin-1-yl)phenyl)amino)thieno[3,2-d]pyrimidin-7-yl)phenyl)methanesulfonamide]
[2]; experiment wp045
  logFC ULK3: −0.9461
  logFC ULK3 (Q6PHR2-1): −0.9461
[2]; experiment wp117
  logFC ULK3: −0.8307
  logFC ULK3 (Q6PHR2-1): −0.8307

## Cc1ccc(NC(=O)c2cccc(C(F)(F)F)c2)cc1N1Cc2cnc(Nc3ccc(N4CCN(CCCCC(=O)N[C@H](C(=O)N5C[C@H](O)C[C@H]5C(=O)N[C@@H](C)c5ccc(-c6scnc6C)cc5)C(C)(C)C)CC4)nc3)nc2N(C)C1=O [DB1113]
[3]; experiment wp168
  logFC: −1.754
[3]; experiment wp168, direction down
  logFC: −1.754

## Cc1ncsc1-c1ccc([C@H](C)NC(=O)[C@@H]2C[C@@H](O)CN2C(=O)[C@@H](NC(=O)CCOCCOCCN2CCN(c3ccc(Nc4ncc(Cl)c(Nc5ccccc5S(=O)(=O)C(C)C)n4)cc3)CC2)C(C)(C)C)cc1 [FMF.06.098.1]
[4]; PTK2 Q05397, experiment wp114
  logFC: −0.9477
  logFC PTK2: −0.9477

## Cc1cnc(Nc2ccc(N3CCN(CCCCCCC(=O)N[C@H](C(=O)N4C[C@H](O)C[C@H]4C(=O)N[C@@H](C)c4ccc(-c5scnc5C)cc4)C(C)(C)C)CC3)cc2)nc1Nc1cccc(S(=O)(=O)NC(C)(C)C)c1 [JWG.123]
[1]; Experiment wp195
  logFC of RPS6KB1 (P23443-1): −0.3426
[1]; experiment wp195
  logFC: −0.3426

## O=C1CCC(N2C(=O)c3cccc(NCCCCCCCCN4CCC(NC(=O)c5[nH]ncc5NC(=O)c5c(Cl)cccc5Cl)CC4)c3C2=O)C(=O)N1 (centres unmarked) [MFH.5.126.1]
[5]; experiment wp076
  logFC: −0.7531
  logFC GSK3A: −0.7531

## CS(=O)(=O)Nc1cccc(-c2csc3cnc(Nc4ccc(N5CCN(CCOCCOCCOc6cccc7c6C(=O)N(C6CCC(=O)NC6=O)C7=O)CC5)cc4)nc23)c1 (centres unmarked) [RSS0628]
[2]; experiment wp045
  logFC ULK3: −1.086
  logFC ULK3 (Q6PHR2-1): −1.086

## Cc1ncsc1-c1ccc([C@H](C)NC(=O)[C@@H]2C[C@@H](O)CN2C(=O)[C@@H](NC(=O)CCCCCN2CCN(c3ccc(Nc4ncc5scc(-c6cccc(NS(C)(=O)=O)c6)c5n4)cc3)CC2)C(C)(C)C)cc1 [RSS0680, (2S,4R)-1-((S)-3,3-Dimethyl-2-(6-(4-(4-((7-(3-(methylsulfonamido)phenyl)thieno[3,2-d]pyrimidin-2-yl)amino)phenyl)piperazin-1-yl)hexanamido)butanoyl)-4-hydroxy-N—((S)-1-(4-(4-methylthiazol-5yl)phenyl)ethyl)pyrrolidine-2-carboxamide]
[1]; Experiment wp117
  logFC of RPS6KB1 (P23443-1): −0.3893
[1]; experiment wp080
  logFC: −0.4358
  logFC of RPS6KB1 (P23443-1): −0.4358
[1]; experiment wp117
  logFC: −0.3893

## Cc1ccc(C(=O)Nc2ccc(CN3CCN(CCCOCCOCCOCCNC(=O)COc4cccc5c4C(=O)N(C4CCC(=O)NC4=O)C5=O)CC3)c(C(F)(F)F)c2)cc1C#Cc1cnc2cccnn12 (centres unmarked) [SB1.G.187]
[3]; experiment wp105
  logFC: −0.3488
[3]; experiment wp105, direction down
  logFC: −0.3488
[3]; experiment wp107
  logFC: −0.4411
[3]; experiment wp107, direction down
  logFC: −0.4411

## CC(C)S(=O)(=O)c1ccccc1Nc1nc(Nc2ccc(N3CCN(CCOCCNC(=O)CNc4cccc5c4C(=O)N(C4CCC(=O)NC4=O)C5=O)CC3)cc2)ncc1Cl (centres unmarked) [SK.3.91]
[1]; Experiment wp107
  logFC of RPS6KB1 (P23443-1): −0.4197
[1]; experiment wp107
  logFC: −0.4197
[4]; Accession Q05397, experiment wp105, direction down
  logFC PTK2: −2.958
[4]; PTK2 Q05397, experiment wp105
  logFC PTK2: −2.958
[4]; PTK2 Q05397, experiment wp114
  logFC: −1.684
  logFC PTK2: −1.684
[4]; PTK2 Q05397, experiment wp172
  logFC: −2.689
  logFC PTK2: −2.689
[2]; Experiment wp160, 2 hr
  logFC ULK3 (Q6PHR2-1): −0.503
[2]; Experiment wp172
  logFC ULK3 (Q6PHR2-1): −0.8151
[2]; experiment wp016, 1 uM
  logFC ULK3: −1.03
  logFC ULK3 (Q6PHR2-1): −1.03
[2]; experiment wp103
  logFC ULK3: −0.9651
  logFC ULK3 (Q6PHR2-1): −0.9651
[2]; experiment wp105
  logFC ULK3: −0.837
  logFC ULK3 (Q6PHR2-1): −0.837
[2]; experiment wp133, 2 hr
  logFC ULK3: −0.5817
  logFC ULK3 (Q6PHR2-1): −0.5817
[2]; experiment wp133, 4 hr
  logFC ULK3: −1.062
  logFC ULK3 (Q6PHR2-1): −1.062
[2]; experiment wp160, 2 hr
  logFC ULK3: −0.503
[2]; experiment wp160, 4 hr
  logFC ULK3: −0.9689
  logFC ULK3 (Q6PHR2-1): −0.9689
[2]; experiment wp172
  logFC ULK3: −0.8151

## CC(C)S(=O)(=O)c1ccccc1Nc1nc(Nc2ccc(N3CCN(CCOCCOCCNC(=O)CNc4cccc5c4C(=O)N(C4CCC(=O)NC4=O)C5=O)CC3)cc2)ncc1Cl (centres unmarked) [TL12.186]
[2]; experiment wp131
  logFC ULK3: −1.074
  logFC ULK3 (Q6PHR2-1): −1.074
[2]; experiment wp137
  logFC ULK3: −1.174
  logFC ULK3 (Q6PHR2-1): −1.174

## CC(C)S(=O)(=O)c1ccccc1Nc1nc(Nc2ccc(N3CCN(CCOCCOCCC(=O)NCCNc4cccc5c4CN(C4CCC(=O)NC4=O)C5=O)CC3)cc2)ncc1Cl (centres unmarked) [TL13.97]
[2]; experiment wp137
  logFC ULK3: −0.3729
  logFC ULK3 (Q6PHR2-1): −0.3729

## NC(=O)c1c(F)cccc1Nc1nc(Nc2ccc(S(=O)(=O)NCCOCCOCCOCCOCCNc3cccc4c3C(=O)N(C3CCC(=O)NC3=O)C4=O)cc2)ncc1Br (centres unmarked) [TMX.02.138]
[5]; experiment wp146
  logFC: −0.8225
  logFC GSK3A: −0.8225

## Cc1cc(Nc2ncc(Br)c(Nc3cccc(F)c3C(N)=O)n2)ccc1S(=O)(=O)NCCOCCOCCOCCOCCNc1cccc2c1C(=O)N(C1CCC(=O)NC1=O)C2=O (centres unmarked) [TMX.02.174]
[5]; experiment wp146
  logFC: −0.7133
  logFC GSK3A: −0.7133
[4]; PTK2 Q05397, experiment wp146
  logFC: −0.8198
  logFC PTK2: −0.8198

## Nc1ncc(-c2ccc(S(=O)(=O)N(CCCNC(=O)CCOCCOCCOCCOCCOCCNc3cccc4c3C(=O)N(C3CCC(=O)NC3=O)C4=O)C3CC3)cc2)cc1-c1ccc2c(c1)CCNC2=O (centres unmarked) [WH.10417.099]
[5]; experiment wp056
  logFC: −0.5169
  logFC GSK3A: −0.5169
[5]; experiment wp103
  logFC: −0.443
  logFC GSK3A: −0.443
[5]; experiment wp105
  logFC: −0.4499
  logFC GSK3A: −0.4499
[5]; experiment wp107
  logFC: −0.4697
  logFC GSK3A: −0.4697
